Assay results from US12144886B2, “Perineural administration of resiniferatoxin for treatment of maladaptive pain” (Sorrento Therapeutics, Inc., priority 2018, dated 2024).

Test system: declawed cat with maladaptive pain
Assay: Feline Musculoskeletal Pain Index (FMPI) in a declawed cat after perineural RTX nerve blocks
Format: in vivo
Set-up: key to FMPI Q5 (jumping down) / FMPI Q6 (climbing upstairs) / FMPI Q7 (going down stairs) / FMPI Q8 (playing with/chasing toys) / FMPI Q9 (playing and interacting with other pets) / FMPI Q10 (getting up from a resting position) / FMPI Q11 (lying or sitting down) / FMPI Q12 (stretching) / FMPI Q13 (grooming) / FMPI Q14 (interacting with the owner) / FMPI Q15 (being touched or handled) / FMPI Q16 (eating) / FMPI Q17 (using the litter box) / FMPI Q1 (walking) / FMPI Q2 (running) / FMPI Q3 (jumping up) / FMPI Q4 (jumping up to kitchen counter height): 4 = normal; 3 = near normal; 2 = Moderately worse than normal; 1 = Barely, or with great effort; 0 = not at all
Details: one cat, 2.5 μg/forelimb perineural
Method: Each dose of 5 μg/cat or 2.5 μg/forelimb will be formulated in 1 cc insulin syringes by diluting 0.1 mL: (2.5 μg) of RTX in 0.9 mL sterile saline for injection immediately before use. For treatment, a total of 1.0 mL (2.5 μg) will be injected as nerve blocks, distributed equally (0.25 ml per injection site) over 4 injection sites for each forelimb.
Four point nerve blocks are performed by injection of 0.25 mL RTX each into the 1) superficial branches of the radial nerve, 2) dorsal branch of the ulnar nerve, 3) median nerve and superficial branch of the palmar branch of the ulnar nerve, and 4) deep branch of the palmar branch of the ulnar nerve. The nerve blocks for each forelimb are performed following a published technique for locoregional block of the manus in cats (Enomoto et al. (2016) J. Feline Med. Surg. 18:838-845). To block the superficial branches of the radial nerve (RSbr nn), the limb is positioned with the dorsal aspect facing upwards and the carpus in 180° of extension. A 25 G×⅝-inch needle is inserted subcutaneously (SC) from a point at the center of the limb at the level of the antebrachiocarpal joint. The needle is advanced approximately 10 mm SC at a 10-20° angle to the long axis of the limb with the bevel facing up. Once the tip of the needle is 3-5 mm from the confluence point of the accessory cephalic and cephalic veins, the injection is made (0.25 mL). To block the dorsal branch of the ulnar nerve (UDbr n), the limb is positioned with the lateral aspect facing upwards. A point is located lateral to and at the same level as the accessory carpal bone (ACb), positioned between the ACb and the styloid process of the ulna (SpU). A 25 G×⅝-inch needle is inserted SC distal to proximal, so the tip lies at the midpoint of the groove formed between ACb and the SpU, and then the injection is made (0.25 mL). To block the median nerve (M n) and superficial branch of the palmar branch of the ulnar nerve (UPbrS n), the limb is positioned with the palmar aspect facing upwards. A 25 G×⅝-inch needle is inserted SC at the distal border of the carpal pad and approximately 5 mm lateral to it, perpendicular to the long axis of the metacarpus, with the bevel facing up. The needle is inserted SC until the point is located two-thirds of the distance from the lateral aspect of the limb to the medial aspect. Two-thirds of the injectate volume is deposited at this point and the remaining volume is injected while the needle is withdrawn (0.25 mL). Gentle massage is applied to the injected volume under the skin for 5 seconds. To block the deep branch of the palmar branch of the ulnar nerve (UPbrDp n), the limb is positioned with the palmar aspect facing upwards. A 25 G×⅝-inch needle is inserted almost perpendicular to the ACb in a mediolateral direction such that the needle contacts the medial palmar aspect of the midpoint of the ACb with the bevel facing up. The needle is then redirected dorsally and advanced on the medial side of the ACb 2-3 mm until it penetrates the flexor retinaculum, and then the injection is made (0.25 mL).
The effectiveness of the injection with RTX is assessed at days 3, 7, and 14 using owner videography for qualitative assessment (jumping, manipulation of the limb), and cats will also be evaluated using the Feline Musculoskeletal Pain Index (FMPI) and the Client Specific Outcome Measure (CSOM).
For FMPI, cats are scored for 17 attributes designated Q1-Q17 using a scale of 0-4, where 0=not at all, 1=barely or with great effort, 2=moderately worse than normal, 3=near normal, and 4=normal. The total FMPI score is the sum of scores for each question. Higher totals indicate less impairment with a possible range of (0-68). For analysis, total score or percent possible can be used. […]

C=C(C)[C@]12C[C@@H](C)[C@@]34O[C@](Cc5ccccc5)(O[C@@H]1[C@@H]3C=C(COC(=O)Cc1ccc(O)c(OC)c1)C[C@]1(O)C(=O)C(C)=C[C@@H]41)O2 [RTX, resiniferatoxin]
FMPI % poss (Day 0 (baseline)): 0.69 | FMPI Q1 (walking) (Day 0 (baseline)): 2 | FMPI Q2 (running) (Day 0 (baseline)): 1 | FMPI Q3 (jumping up) (Day 0 (baseline)): 3 | FMPI Q4 (jumping up to kitchen counter height) (Day 0 (baseline)): 0 | FMPI Q5 (jumping down) (Day 0 (baseline)): 2 | FMPI Q6 (climbing upstairs) (Day 0 (baseline)): 4 | FMPI Q7 (going down stairs) (Day 0 (baseline)): 4 | FMPI Q8 (playing with/chasing toys) (Day 0 (baseline)): 3 | FMPI Q9 (playing and interacting with other pets) (Day 0 (baseline)): 2 | FMPI Q10 (getting up from a resting position) (Day 0 (baseline)): 4 | FMPI Q11 (lying or sitting down) (Day 0 (baseline)): 4 | FMPI Q12 (stretching) (Day 0 (baseline)): 3 | FMPI Q13 (grooming) (Day 0 (baseline)): 3 | FMPI Q14 (interacting with the owner) (Day 0 (baseline)): 3 | FMPI Q15 (being touched or handled) (Day 0 (baseline)): 2 | FMPI Q16 (eating) (Day 0 (baseline)): 4 | FMPI Q17 (using the litter box) (Day 0 (baseline)): 3 | FMPI Total score (possible range 0-68) (Day 0 (baseline)): 47 | FMPI % poss (Day 3): 0.71 | FMPI Q1 (walking) (Day 3): 3 | FMPI Q2 (running) (Day 3): 2 | FMPI Q3 (jumping up) (Day 3): 3 | FMPI Q4 (jumping up to kitchen counter height) (Day 3): 2 | FMPI Q5 (jumping down) (Day 3): 3 | FMPI Q6 (climbing upstairs) (Day 3): *3 | FMPI Q7 (going down stairs) (Day 3): *3 | FMPI Q8 (playing with/chasing toys) (Day 3): 3 | FMPI Q9 (playing and interacting with other pets) (Day 3): *1 | FMPI Q10 (getting up from a resting position) (Day 3): 4 | FMPI Q11 (lying or sitting down) (Day 3): 4 | FMPI Q12 (stretching) (Day 3): *2 | FMPI Q13 (grooming) (Day 3): 3 | FMPI Q14 (interacting with the owner) (Day 3): 3 | FMPI Q15 (being touched or handled) (Day 3): 2 | FMPI Q16 (eating) (Day 3): 4 | FMPI Q17 (using the litter box) (Day 3): 3 | FMPI Total score (possible range 0-68) (Day 3): 48 | FMPI % poss (Day 7): 0.81 | FMPI Q1 (walking) (Day 7): 3 | FMPI Q2 (running) (Day 7): 3 | FMPI Q3 (jumping up) (Day 7): 3 | FMPI Q4 (jumping up to kitchen counter height) (Day 7): 3 | FMPI Q5 (jumping down) (Day 7): 3 | FMPI Q6 (climbing upstairs) (Day 7): 4 | FMPI Q7 (going down stairs) (Day 7): 4 | FMPI Q8 (playing with/chasing toys) (Day 7): 3 | FMPI Q9 (playing and interacting with other pets) (Day 7): 2 | FMPI Q10 (getting up from a resting position) (Day 7): 4 | FMPI Q11 (lying or sitting down) (Day 7): 4 | FMPI Q12 (stretching) (Day 7): 3 | FMPI Q13 (grooming) (Day 7): 3 | FMPI Q14 (interacting with the owner) (Day 7): 3 | FMPI Q15 (being touched or handled) (Day 7): 3 | FMPI Q16 (eating) (Day 7): 4 | FMPI Q17 (using the litter box) (Day 7): 3 | FMPI Total score (possible range 0-68) (Day 7): 55 | FMPI % poss (Day 14): 0.84 | FMPI Q1 (walking) (Day 14): 3 | FMPI Q2 (running) (Day 14): 3 | FMPI Q3 (jumping up) (Day 14): 4 | FMPI Q4 (jumping up to kitchen counter height) (Day 14): 3 | FMPI Q5 (jumping down) (Day 14): 3 | FMPI Q6 (climbing upstairs) (Day 14): 4 | FMPI Q7 (going down stairs) (Day 14): 4 | FMPI Q8 (playing with/chasing toys) (Day 14): 3 | FMPI Q9 (playing and interacting with other pets) (Day 14): 3 | FMPI Q10 (getting up from a resting position) (Day 14): 4 | FMPI Q11 (lying or sitting down) (Day 14): 4 | FMPI Q12 (stretching) (Day 14): 3 | FMPI Q13 (grooming) (Day 14): 3 | FMPI Q14 (interacting with the owner) (Day 14): 3 | FMPI Q15 (being touched or handled) (Day 14): 3 | FMPI Q16 (eating) (Day 14): 4 | FMPI Q17 (using the litter box) (Day 14): 3 | FMPI Total score (possible range 0-68) (Day 14): 57 | FMPI % poss (Screening (baseline)): 0.69 | FMPI Q1 (walking) (Screening (baseline)): 2 | FMPI Q2 (running) (Screening (baseline)): 1 | FMPI Q3 (jumping up) (Screening (baseline)): 3 | FMPI Q4 (jumping up to kitchen counter height) (Screening (baseline)): 0 | FMPI Q5 (jumping down) (Screening (baseline)): 2 | FMPI Q6 (climbing upstairs) (Screening (baseline)): 4 | FMPI Q7 (going down stairs) (Screening (baseline)): 4 | FMPI Q8 (playing with/chasing toys) (Screening (baseline)): 3 | FMPI Q9 (playing and interacting with other pets) (Screening (baseline)): 2 | FMPI Q10 (getting up from a resting position) (Screening (baseline)): 4 | FMPI Q11 (lying or sitting down) (Screening (baseline)): 4 | FMPI Q12 (stretching) (Screening (baseline)): 3 | FMPI Q13 (grooming) (Screening (baseline)): 3 | FMPI Q14 (interacting with the owner) (Screening (baseline)): 3 | FMPI Q15 (being touched or handled) (Screening (baseline)): 2 | FMPI Q16 (eating) (Screening (baseline)): 4 | FMPI Q17 (using the litter box) (Screening (baseline)): 3 | FMPI Total score (possible range 0-68) (Screening (baseline)): 47
